Laboratory results reported in PubChem BioAssay (NCI).
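Step 1: Grow cells in 96-well plates. Step 2: Expose to compound for 48 hours at 5 concentrations. Step 3: Interpolate endpoints linearly; if unreached, use highest concentration. Definition used: TGI = concentration required for complete inhibition of growth.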

How the values were obtained:
Test in all cases: growth of human tumour cells (NCI), 48 h
[1] = tested on: MOLT-4 leukemia
[2] = tested on: SK-OV-3 ovarian
[3] = tested on: 786-0 renal
[4] = tested on: HOP-62 NSCLC
[5] = tested on: SF-268 CNS
[6] = tested on: OVCAR-4 ovarian
[7] = tested on: DLD-1 colon
[8] = tested on: LXFL 529 NSCLC
[9] = tested on: HT29 colon
[10] = tested on: MALME-3M melanoma
[11] = tested on: SK-MEL-2 melanoma
[12] = tested on: CAKI-1 renal
[13] = tested on: NCI-H23 lung
[14] = tested on: SF-295 CNS
[15] = tested on: SK-MEL-28 melanoma
[16] = tested on: COLO 205 colon
[17] = tested on: SF-539 CNS
[18] = tested on: KM12 colon
[19] = tested on: SR leukemia
[20] = tested on: OVCAR-5 ovarian
[21] = tested on: K-562 leukemia
[22] = tested on: OVCAR-3 ovarian
[23] = tested on: NCI-H522 lung
[24] = tested on: DMS 114 small cell lung
[25] = tested on: TK-10 renal
[26] = tested on: NCI-H460 lung
[27] = tested on: M14 melanoma
[28] = tested on: RPMI-8226 leukemia
[29] = tested on: ACHN renal
[30] = tested on: SNB-78 CNS
[31] = tested on: HL-60(TB) leukemia
[32] = tested on: UACC-62 melanoma
[33] = tested on: IGROV1 ovarian
[34] = tested on: A549 NSCLC
[35] = tested on: XF 498 CNS
[36] = tested on: SK-MEL-5 melanoma
[37] = tested on: HOP-92 NSCLC
[38] = tested on: HCT-15 colon
[39] = tested on: CCRF-CEM leukemia
[40] = tested on: NCI-H226 lung
[41] = tested on: UO-31 renal
[42] = tested on: EKVX NSCLC
[43] = tested on: SW-620 colon
[44] = tested on: LOX IMVI melanoma
[45] = tested on: KM20L2 colon
[46] = tested on: SNB-19 CNS
[47] = tested on: SNB-75 CNS
[48] = tested on: HCT-116 colon
[49] = tested on: OVCAR-8 ovarian
[50] = tested on: SN12C renal
[51] = tested on: U251 CNS
[52] = tested on: UACC-257 melanoma
[53] = tested on: MDA-MB-231 breast
[54] = tested on: T-47D breast
[55] = tested on: PC-3 prostate
[56] = tested on: DU-145 prostate
[57] = tested on: HS 578T breast
[58] = tested on: MDA-N
[59] = tested on: RXF 393 renal
[60] = tested on: DMS 273 small cell lung
[61] = tested on: HOP-18 NSCLC
[62] = tested on: A498 renal
[63] = tested on: NCI/ADR-RES ovarian
[64] = tested on: MCF7 breast
[65] = tested on: HCC-2998 colon
[66] = tested on: MDA-MB-435
[67] = tested on: BT-549 breast

`Cc1ccc(NCCO)cc1` was tested, and the TGI [1] was over 100 µM, the TGI [2] was over 100 µM and the TGI [3] was over 100 µM. For the same molecule, the TGI [4] was over 100 µM, the TGI [5] was over 100 µM and the TGI [6] was over 100 µM. It also gave a TGI [7] of over 100 µM, a TGI [8] of over 100 µM and a TGI [9] of over 100 µM. It also gave a TGI [10] of over 100 µM, a TGI [11] of over 100 µM and a TGI [12] of over 100 µM. The TGI [13] was over 100 µM, the TGI [14] was over 100 µM and the TGI [15] was over 100 µM. It also gave a TGI [16] of over 100 µM, a TGI [17] of over 100 µM and a TGI [18] of over 100 µM. For the same molecule, the TGI [19] was over 100 µM, the TGI [20] was over 100 µM and the TGI [21] was over 100 µM. It also gave a TGI [22] of over 100 µM, a TGI [23] of over 100 µM and a TGI [24] of over 100 µM. The TGI [25] was over 100 µM, the TGI [26] was over 100 µM and the TGI [27] was over 100 µM. It also gave a TGI [28] of over 100 µM, a TGI [29] of over 100 µM and a TGI [30] of over 100 µM. The TGI [31] was over 100 µM, the TGI [32] was over 100 µM and the TGI [33] was over 100 µM. It also gave a TGI [34] of over 100 µM, a TGI [35] of over 100 µM and a TGI [36] of over 100 µM. For the same molecule, the TGI [37] was over 100 µM, the TGI [38] was over 100 µM and the TGI [39] was over 100 µM. For the same molecule, the TGI [40] was over 100 µM, the TGI [41] was over 100 µM and the TGI [42] was over 100 µM. The TGI [43] was over 100 µM, the TGI [44] was over 100 µM and the TGI [45] was over 100 µM. The TGI [46] was over 100 µM, the TGI [47] was over 100 µM and the TGI [48] was over 100 µM. The TGI [49] was over 100 µM, the TGI [50] was over 100 µM and the TGI [51] was over 100 µM. It also gave a TGI [52] of over 100 µM.
With `Cc1ccc2[nH]c3c(C)c4cc[n+](C)cc4c(C)c3c2c1` the TGI [1] was 54.9 µM, the TGI [53] was over 44.7 µM and the TGI [54] was 6.83 µM. For the same molecule, the TGI [2] was 50.2 µM, the TGI [55] was 7.63 µM and the TGI [3] was 2.75 µM. It also gave a TGI [4] of 3.28 µM, a TGI [5] of 1.77 µM and a TGI [56] of 33.5 µM. It also gave a TGI [6] of 13.4 µM, a TGI [7] of 49.8 µM and a TGI [57] of 0.917 µM. It also gave a TGI [8] of 5.01 µM, a TGI [9] of 41.6 µM and a TGI [10] of 4.38 µM. For the same molecule, the TGI [11] was 4.71 µM, the TGI [12] was over 56.5 µM and the TGI [13] was 5.77 µM. For the same molecule, the TGI [14] was 4.19 µM, the TGI [58] was 22.1 µM and the TGI [15] was 8.48 µM. The TGI [16] was 5.05 µM, the TGI [17] was 2.73 µM and the TGI [18] was 6.89 µM. It also gave a TGI [59] of 18.3 µM, a TGI [19] of 70.7 µM and a TGI [20] of 77.1 µM. It also gave a TGI [21] of 63.4 µM, a TGI [22] of 19.2 µM and a TGI [23] of 3.9 µM. It also gave a TGI [24] of 2.73 µM, a TGI [25] of over 96.3 µM and a TGI [26] of 40.7 µM. The TGI [27] was 28.9 µM, the TGI [60] was 17.7 µM and the TGI [61] was over 58.5 µM. The TGI [28] was over 59.7 µM, the TGI [29] was 57.9 µM and the TGI [30] was 4.82 µM. For the same molecule, the TGI [31] was 29.8 µM, the TGI [62] was 4.53 µM and the TGI [32] was 16.4 µM. It also gave a TGI [33] of 32.2 µM, a TGI [34] of 4.28 µM and a TGI [63] of over 100 µM. The TGI [36] was 8.54 µM, the TGI [37] was 33.7 µM and the TGI [64] was over 23.8 µM. It also gave a TGI [38] of over 82.6 µM, a TGI [65] of 10.1 µM and a TGI [39] of 40.3 µM. For the same molecule, the TGI [40] was 3.24 µM, the TGI [41] was 60.2 µM and the TGI [42] was 10.3 µM. For the same molecule, the TGI [43] was 12.2 µM, the TGI [44] was 28.9 µM and the TGI [66] was 13.7 µM. For the same molecule, the TGI [45] was 71.3 µM, the TGI [46] was 2.53 µM and the TGI [47] was 0.761 µM. For the same molecule, the TGI [48] was 32.6 µM, the TGI [49] was 8.97 µM and the TGI [50] was 1.52 µM. For the same molecule, the TGI [51] was 2.11 µM, the TGI [67] was 3.05 µM and the TGI [52] was 20.2 µM.
